The values below come from patent US20080194656A1, “Benzotriazole Derivatives as Cannabinoid Receptor Antagonists” (priority 2005, published 2008).

Some results are limits rather than exact numbers.

For assay [1], the target named is T1, Cb-1 receptor stably expressed in CHO-K1 cells (Homo sapiens, UniProt P21554).
T1 construct: host or cells: CHO-K1
The experiment in a line: Cyclic AMP accumulation (HTRF cAMP assay, antagonism of CP55940). It is filed as cell-based. The settings on record: forskolin and CP55940 (agonist), 30 min at 25° C.; for IC50: read-out: Example C2 cAMP (antagonism) pIC50 (converted). The procedure:
(§1) Human Cb-1 transfected CHO-K1 cells (Euroscreen; Cat # ES-110-C; hCB1-D1; accession n′ Swissprot X54937) were maintained as described previously (Felder et al., 1995 & 1998). For membrane preparation, cells were cultured in DMEM/Ham's F12 medium containing 10% (v/v) heat inactivated FCS, 100 U/ml penicillin and 100 μg/ml streptomycin, 100 μg/ml pyruvate and 292 μg/ml L-glutamine under 5% CO2 at 37° C. in roller bottles, with medium changed 3 times a week. When 90% confluent, cells collected by trypsinisation and re-seeded at 1:10 or 1:20 dilutions to fresh roller bottles. For measurement of cAMP formation, cells were cultured to 90% confluency in Falcon T175 flasks.
Using the commercially available dynamic homogenous time-resolved fluorescence cAMP assay, the cAMP measurements on CHO-K1 cells that stably express the Cb-1 receptor were performed. Cells were detached from flasks using 3 ml EDTA (0.04% (w/v) in PBS) and resuspended in PBS (without Ca^2+ and Mg^2+) and centrifuged at 500×g for 5 min. Cell pellet was resuspended in stimulation buffer (HBSS medium containing 1 mM IBMX, 5 mM Hepes, 10 mM MgCl2 and 0.1% (w/v) BSA) and were dispensed into a black 96 well plate at a cell density of 20000 cells per well. After 30 min at 25° C., an equal volume of stimulation buffer containing forskolin and CP55940 (agonist) and/or a Cb-1 antagonist was added to the cells. After 30 min incubation at 25° C., cAMP detection was performed by addition of an equal volume of cAMP-XL665 and anti-cAMP-cryptate conjugates. The plate was incubated for a further 60 min at 25° C. and then measured with Discovery (PerkinElmer N.V./S.A. Belgium).
(Time-resolved FRET reads energy transfer from a long-lived donor to a nearby acceptor.)

Assay [2] deals with T2, Human Cb-1 receptor (transfected CHO-K1 cell membranes) (Homo sapiens, UniProt P21554).
T2 construct: host or cells: CHO-K1
Description: Cb-1 competition receptor binding in cell membranes ([3H]CP55,940 displacement). The note with it: 3H-CP55,940 0.5 nM, 1 hour at 25° C.; for IC50: read-out: Example C1 Binding pIC50 (converted). On the procedure:
as §1
Prior to membrane preparation, confluent cells were treated with 5 mM butyrate for 24 hours. Medium was aspirated and cells were scraped from bottles in 50 ml homogenization buffer consisting of 15 mM Tris-HCl, pH 7.4 containing 2 mM MgCl2, 0.3 mM EDTA and 1 mM EGTA. The cells were then centrifuged for 10 minutes at 1700×g at 4° C. and homogenized in 20 ml same buffer with an Ultra Turrax. The crude membrane pellet was collected by two consecutive centrifugation steps at 20,000×g for 10 min and for 20 min at 25,000×g respectively, separated by a washing/homogenization step in 10 ml homogenization buffer. Final cell pellets were resuspended in a volume of 6 ml/roller bottle in stock buffer consisting of 7.5 mM Tris-HCl, pH 7.4, containing 12.5 mM MgCl2, 0.3 mM EDTA, 1 mM EGTA and 250 mM sucrose. Protein content was assayed by the BioRad method (Bradford, 1976).
Competition binding assays were performed in triplicate in a final volume of 0.5 ml containing incubation buffer (50 mM Tris-HCl, pH 7.4 containing 2.5 mM EDTA and 0.5% (w/v) BSA), 50 μl ^3H-CP55,940 (0.5 nM final), 0.4 ml transfected CHO-K1 membrane proteins (60 μg/ml) in the presence or absence of test compound. Non-specific binding determined using 1 μM CP55,940. The samples were incubated for 1 hour at 25° C., being terminated by rapid filtration on GF/C filters presoaked in 0.1% polyethylenimine, using a Unifilter-96 Harvester (PerkinElmer N.V./S.A. Belgium). Filters were washed 6 times with cold washing buffer (50 mM Tris-HCl, pH 7.4 containing 0.1% BSA), plates air-dried overnight before bound [^3H]CP55,940 was measured by liquid scintillation counting using a TopCount NXT microplate scintillation counter (Packard BioScience/ PerkinElmer N.V./S.A. Belgium). IC50 values were determined by a single-site binding equation (GraphPad Prism, San Diego, Calif., U.S.A.).

Assay [3] relates to food intake in rats and mice. The experiment in a line: Feeding experiments, acute dose-response on food intake. It is filed as in vivo. The note with it: oral single dose, food intake 1 h after lights out. On the procedure:
Male Sprague Dawley rats (weighing 250-300 g at the time of experiment) were obtained from Charles River (Sulzfeld, Kisslegg, Germany). Male C57Bl/6J Rj mice (weighing 25-30 g at the time of experiments) were obtained from Janvier (Le Genest-St-Isle, France). All animals had free access to water and were individually housed under 12-h light:dark cycle (lights on at 22:00 h) and at a temperature of 19-22° C. and 35-40% humidity in Techniplast IVC cages adapted to fit external food hoppers. Rats and mice were fed a standard purified diet containing 10% kcal fat (Dyets, Inc. Bethlehem, USA; or Research diets, New Brunswick, N.J., USA). All experiments were carried out in accordance with the European Communities Council Directives (86/609/EEC) and were approved by the local ethical committee.
An acute dose-response analysis for each compound was performed. All rats and mice were randomly assigned and orally dosed with either vehicle (10% cyclodextran containing 0.9% (w/v) saline) or vehicle containing a single concentration of compound (0.16, 0.63, 2.50, 10.0, 40.0 mg/kg at 10 ml/kg) so that the average latency from time of drug administration and lights out was 45 minutes, with 6 animals per group. Food intake was measured 1, 2, 4, 6 and 24 hours after lights out.

Assay [4] addresses T2, Human Cb-1 receptor (transfected CHO-K1 cell membranes). The experiment in a line: Cb-1 competition receptor binding in cell membranes ([3H]CP55,940 displacement). The settings on record: statement on the enantiomers of the racemate, no test named.

T1 sequence (P21554 whole entry): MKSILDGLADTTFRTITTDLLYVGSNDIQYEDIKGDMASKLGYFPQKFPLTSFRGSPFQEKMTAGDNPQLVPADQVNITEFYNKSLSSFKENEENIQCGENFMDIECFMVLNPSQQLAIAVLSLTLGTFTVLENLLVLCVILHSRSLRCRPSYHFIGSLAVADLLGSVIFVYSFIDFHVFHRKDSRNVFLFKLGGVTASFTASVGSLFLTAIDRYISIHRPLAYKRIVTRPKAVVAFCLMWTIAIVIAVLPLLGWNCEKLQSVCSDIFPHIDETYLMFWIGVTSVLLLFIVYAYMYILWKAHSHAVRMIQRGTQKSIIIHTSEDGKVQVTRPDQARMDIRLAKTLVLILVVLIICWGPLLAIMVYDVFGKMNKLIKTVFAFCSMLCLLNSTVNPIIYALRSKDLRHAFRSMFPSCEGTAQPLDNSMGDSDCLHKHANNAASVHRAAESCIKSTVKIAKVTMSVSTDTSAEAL
T2 sequence (P21554 whole entry): as above

Turning to `Clc1ccc(C(c2ccc3nnn(C4CCCCC4)c3c2)n2cncn2)cc1` (racemic) [Intermediate 7, 1H-Benzotriazole, 6-[(4-chlorophenyl)-1H-1,2,4-triazol-1-ylmethyl]-1-cyclohexyl-], the IC50 in assay [1] was 0.0363 µM; in assay [2], 0.288 µM. For the same molecule, in assay [3] (po, 1 h, read-out: Example C3 Food intake at 1 h ED50), the ED50 is 3.28 mg/kg.

Turning to `Clc1ccc([C@H](c2ccc3nnn(C4CCCCC4)c3c2)n2cncn2)cc1` (single isomer, unassigned) [Compound 1], the IC50 in assay [2] is 8.91 µM. The “Example C3 Food intake at 1 h ED50” value in assay [3] is >100 mg/kg.

Consider `Clc1ccc([C@H](c2ccc3nnn(C4CCCCC4)c3c2)n2cncn2)cc1` (single isomer, unassigned) [Compound 2, 1H-Benzotriazole, (−)-6-[(4-chlorophenyl)-1H-1,2,4-triazol-1-ylmethyl]-1-cyclohexyl-], for which the IC50 in assay [2] was 0.141 µM. Also, in assay [3], the “Example C3 Food intake at 1 h ED50” value is 2.69 mg/kg.

For `Clc1ccc([C@H](c2ccc3nnn(C4CCCCC4)c3c2)n2cncn2)cc1` [Compound 2, 1H-Benzotriazole, (−)-6-[(4-chlorophenyl)-1H-1,2,4-triazol-1-ylmethyl]-1-cyclohexyl-], the “active as a CB1 modulator” value in assay [4] is “active”.

Regarding `CC(C)CCn1nnc2ccc(C(c3ccc(Cl)cc3)n3ccnc3)cc21` (stereo not drawn) [Compound 4], the IC50 is 0.339 µM in assay [1] and 0.933 µM in assay [2].

For `Clc1ccc(Cn2nnc3ccc(C(c4ccc(Cl)cc4)n4ccnc4)cc32)cc1` (stereo not drawn) [Compound 5], the figures for the IC50 in assay [1] and in assay [2] were 0.955 µM and 0.832 µM, respectively.

`Cn1nnc2ccc(C(c3ccc(Cl)cc3)c3nccs3)cc21` (stereo not drawn) [Compound 6]: the IC50 in assay [2] is 5.37 µM.

With `CC(C)n1nnc2ccc(C(c3ccc(Cl)cc3)n3cncn3)cc21` (stereo not drawn) [Compound 7], the “Example C2 cAMP (antagonism) pIC50” value in assay [1] turned out to be 6.9. The “Example C1 Binding pIC50” value in assay [2] is recorded as 6.69.

As for `CCCCn1nnc2ccc(C(c3ccc(Cl)cc3)n3cncn3)cc21` (stereo not drawn) [Compound 8], the “Example C2 cAMP (antagonism) pIC50” value in assay [1] worked out at 6.62. In assay [2], the “Example C1 Binding pIC50” value came to 6.45.

`c1ccc(C(c2ccc3nnn(C4CCCCC4)c3c2)n2ccnc2)cc1` (stereo not drawn) [Compound 9]: in assay [1], the “Example C2 cAMP (antagonism) pIC50” value is recorded as 5.79. For the same molecule, in assay [2], the “Example C1 Binding pIC50” value is recorded as 6.05.

Consider `Clc1ccc(C(c2ccc3nnn(-c4ccccc4)c3c2)n2ccnc2)cc1` (stereo not drawn) [Compound 10], for which the “Example C2 cAMP (antagonism) pIC50” value in assay [1] came out at 6.38. Besides, the “Example C1 Binding pIC50” value in assay [2] worked out at 6.28.

Take `CC(c1ccccc1)n1nnc2ccc(C(c3ccc(Cl)cc3)n3ccnc3)cc21` (stereo not drawn) [Compound 11]: the “Example C1 Binding pIC50” value in assay [2] was 5.67.

In the case of `CC(C)n1nnc2ccc(C(c3ccc(Cl)cc3)n3ccnc3)cc21` (stereo not drawn) [Compound 12], in assay [2], the “Example C1 Binding pIC50” value is 5.53.

`Clc1ccc(C(c2ccc3nnn(Cc4ccccc4)c3c2)n2ccnc2)cc1` (stereo not drawn) [Compound 13]: in assay [2], the “Example C1 Binding pIC50” value came to 5.61.
